# Publication PMC5627448, “Pharmacokinetics of carfilzomib in patients with advanced malignancies and varying degrees of hepatic impairment: an open-label, single-arm, phase 1 study” (Experimental Hematology & Oncology, 2017)
# Legend:
# [1] = Plasma pharmacokinetics of carfilzomib and its major metabolites after 30-min IV infusion in patients with normal or impaired hepatic function; settings: human, in vivo
# Procedure: This was a phase 1, multicenter, open-label, nonrandomized, comparative PK study of carfilzomib in patients with normal hepatic function or mild-to-moderate hepatic impairment. The study was conducted at 12 sites in the USA, United Kingdom, France, and the Netherlands. […] Exploratory objectives included evaluation of overall response rate (ORR) and duration of response (DOR).
# Patients received carfilzomib as a 30-min IV infusion on days 1, 2, 8, 9, 15, and 16 of 28-day cycles (Fig. 1). All patients were to receive doses of 20 mg/m^2 on days 1 and 2 of cycle 1. […]
# Blood samples were collected to measure PK and plasma concentration of carfilzomib and its major metabolites (PR-389/M14, PR-413/M15, and PR-519/M16). […] Safety was assessed throughout the study and included the monitoring of adverse events (AEs) using National Cancer Institute-Common Terminology Criteria for Adverse Events, version 4.03 (NCI-CTCAE v4.03), clinical laboratory evaluations, and vital signs; echocardiograms and physical examinations were also performed. The exact type and frequency of disease or tumor response assessments depended upon tumor type and was assessed by the investigator using the appropriate measure for the underlying malignancy, including Response Evaluation Criteria in Solid Tumours version 1.1. […]
# [2] = cited from earlier work
# Text: Carfilzomib is an irreversible, proteasome inhibitor approved in the United States of America (USA) and Europe for the treatment of relapsed or refractory multiple myeloma in combination with lenalidomide + dexamethasone or with dexamethasone alone. […] In the normal hepatic function cohort, one outlier contributed to the extremely high variability. […] [6].
# [3] = system: relapsed or progressive advanced malignancies; experiment: Efficacy: best overall response as determined by investigator (RECIST 1.1 / IMWG-URC); format: in vivo, human; settings: for Best overall response: complete response / Best overall response: partial response / Best overall response: progressive disease / Best overall response: stable disease / Best overall response: not evaluable: response-evaluable population
# Procedure: (§1) Blood samples were collected to measure PK and plasma concentration of carfilzomib and its major metabolites (PR-389/M14, PR-413/M15, and PR-519/M16). Samples were collected on day 16 of cycle 1 and day 1 of cycle 2 (or on subsequent infusion days when the intended dose levels were administered) before infusion; at 15 min after start of infusion; within 2 min before end of infusion; and at 5, 15, and 30 min (±2 min for each); and at 1, 2, and 4 h (±5 min for each) after end of the infusion (Fig. 1). Safety was assessed throughout the study and included the monitoring of adverse events (AEs) using National Cancer Institute-Common Terminology Criteria for Adverse Events, version 4.03 (NCI-CTCAE v4.03), clinical laboratory evaluations, and vital signs; echocardiograms and physical examinations were also performed. The exact type and frequency of disease or tumor response assessments depended upon tumor type and was assessed by the investigator using the appropriate measure for the underlying malignancy, including Response Evaluation Criteria in Solid Tumours version 1.1.
# For multiple myeloma patients, efficacy was assessed on day 1 of each cycle during treatment. For solid tumor patients, efficacy was assessed on day 1 of every other cycle [i.e., on day 1 (±7 days) of cycles 3, 5, 7, 9, etc.] during treatment.
# (§2) Safety was assessed for patients who received any carfilzomib dose. AEs were mapped to a preferred term and system organ class using MedDRA and were graded using the NCI-CTCAE v4.03. ORR was summarized along with 95% exact binomial CIs by cohorts.
# [4] = Safety: treatment-emergent adverse events, discontinuations and deaths (NCI-CTCAE v4.03) in patients by hepatic function; format: in vivo, human
# Procedure: as §1, §2
# [5] = IV administration, patients with solid tumors
# [6] = normal hepatic function, n = 10
# [7] = normal hepatic function, n = 11
smiles,measurement,setting,value
CC(C)C[C@H](NC(=O)[C@H](CCc1ccccc1)NC(=O)CN1CCOCC1)C(=O)N[C@@H](Cc1ccccc1)C(=O)N[C@@H](CC(C)C)C(=O)[C@@]1(C)CO1 [carfilzomib],Higher carfilzomib AUC vs. normal hepatic function patients,[1],20–50%
same,Mean T1/2,[1],30 to 42 min
same,"Cmax, historical data","[2]; 56 mg/m^2, geometric mean (geometric CV%)",2079 (44%) ng/mL
same,Estimated clearance,[2]; [5],high and exceeds hepatic blood flow
same,Time within which most of the drug is eliminated from the plasma compartment,[2]; [5],≤ 30 min
same,"Difference in PK parameters, mild hepatic impairment vs normal hepatic function","[2]; population PK analysis, mild N = 143, normal N = 474",no statistically significant differences
same,Best overall response: complete response,"[3]; mild impairment, n = 15",0 (0.0) n (%)
same,Best overall response: partial response,"[3]; mild impairment, n = 15",0 (0.0) n (%)
same,Best overall response: progressive disease,"[3]; mild impairment, n = 15",12 (80.0) n (%)
same,Best overall response: stable disease,"[3]; mild impairment, n = 15",1 (6.7) n (%)
same,Best overall response: complete response,"[3]; moderate impairment, n = 9",0 (0.0) n (%)
same,Best overall response: not evaluable,"[3]; moderate impairment, n = 9",3 (33.3) n (%)
same,Best overall response: partial response,"[3]; moderate impairment, n = 9",0 (0.0) n (%)
same,Best overall response: progressive disease,"[3]; moderate impairment, n = 9",4 (44.4) n (%)
same,Best overall response: stable disease,"[3]; moderate impairment, n = 9",2 (22.2) n (%)
same,Best overall response: complete response,[3]; [6],0 (0.0) n (%)
same,Best overall response: not evaluable,[3]; [6],0 (0.0) n (%)
same,Best overall response: partial response,[3]; [6],1 (10.0) n (%)
same,Best overall response: progressive disease,[3]; [6],5 (50.0) n (%)
same,Best overall response: stable disease,[3]; [6],4 (40.0) n (%)
same,DOR of partial response,[3]; one multiple myeloma patient with normal hepatic function,≥ 3 months
same,ORR,"[3]; overall study population, n = 34, 95% CI 0.1–15.3%",2.9%
same,Best overall response: complete response,"[3]; total, n = 34",0 (0.0) n (%)
same,Best overall response: not evaluable,"[3]; total, n = 34",5 (14.7) n (%)
same,Best overall response: partial response,"[3]; total, n = 34",1 (2.9) n (%)
same,Best overall response: progressive disease,"[3]; total, n = 34",21 (61.8) n (%)
same,Best overall response: stable disease,"[3]; total, n = 34",7 (20.6) n (%)
same,Deaths considered related to treatment,[4]; both in mild hepatic impairment group: gastrointestinal hemorrhage and acute respiratory distress syndrome,Two
same,AE resulting in treatment discontinuation: increased blood bilirubin,"[4]; human, in vivo",2 patients
same,AE resulting in treatment discontinuation: pneumonitis,"[4]; human, in vivo",one
same,"Grade ≥3 AEs considered related to treatment, patients","[4]; human, in vivo",33%
same,"Grade ≥3 AEs, patients","[4]; human, in vivo",76%
same,Serious AE: acute kidney injury,"[4]; human, in vivo",three
same,Serious AE: anemia,"[4]; human, in vivo",two
same,Serious AE: ascites,"[4]; human, in vivo",three
same,Serious AE: hepatic encephalopathy,"[4]; human, in vivo",two
same,Serious AE: increased blood bilirubin,"[4]; human, in vivo",two
same,Serious AE: lower respiratory tract infection,"[4]; human, in vivo",two
same,Serious AE: pneumonia,"[4]; human, in vivo",two
same,Serious AE: sepsis,"[4]; human, in vivo",three
same,"Treatment-emergent AEs, patients","[4]; human, in vivo",98%
same,Treatment discontinuation due to death,"[4]; mild impairment, n = 17",2 n
same,Treatment discontinuation due to disease progression,"[4]; mild impairment, n = 17",13 n
same,Treatment discontinuation due to death,"[4]; moderate impairment, n = 14",1 n
same,Treatment discontinuation due to disease progression,"[4]; moderate impairment, n = 14",7 n
same,Treatment discontinuation due to death,[4]; [7],1 n
same,Treatment discontinuation due to disease progression,[4]; [7],7 n
same,Deaths within 30 days after the last dose,[4]; safety population,Nine
same,Treatment discontinuation due to death,"[4]; severe impairment, n = 4",2 n
same,Treatment discontinuation due to disease progression,"[4]; severe impairment, n = 4",2 n
same,Treatment discontinuation due to death,"[4]; total, N = 46",6 n
same,Treatment discontinuation due to disease progression,"[4]; total, N = 46",29 n
same,Deaths among severe hepatic impairment patients,"[4]; two progressive disease, two fatal AEs unrelated to treatment",four
